Where two headings read alike, the source gives them in different places.
Key:
[1] = system: somatostatin receptors hsst1-5; test: Binding potencies and selectivities at somatostatin receptors hsst1-5; set-up: species or system human
[2] = target: hsst2 (Homo sapiens, UniProt P30874); test: Binding of beta-MeTrp analogs of L-363,301 to hsst2
[3] = system: SST 1-5; settings: background statement; cited from earlier work
[4] = target: SST4 (Homo sapiens, UniProt P31391); test: Binding affinities of SS-14, Sandostatin and RC-121 (Table 1); settings: read-out: Ki ± SEM, SST4
Chain of SST4 (P31391 whole entry, species assumed): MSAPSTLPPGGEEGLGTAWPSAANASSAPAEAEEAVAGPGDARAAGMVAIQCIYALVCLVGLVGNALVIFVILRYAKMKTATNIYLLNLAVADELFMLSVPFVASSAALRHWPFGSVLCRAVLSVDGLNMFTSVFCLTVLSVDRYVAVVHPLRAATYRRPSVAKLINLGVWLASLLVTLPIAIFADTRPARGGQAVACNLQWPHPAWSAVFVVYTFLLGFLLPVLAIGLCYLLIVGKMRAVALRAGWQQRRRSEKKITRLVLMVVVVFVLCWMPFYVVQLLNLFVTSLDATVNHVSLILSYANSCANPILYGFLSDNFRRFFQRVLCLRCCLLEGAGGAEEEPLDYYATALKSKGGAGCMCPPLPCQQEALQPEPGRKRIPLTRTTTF

[5] = target: SST1 (Homo sapiens, UniProt P30872); test: as above; settings: read-out: Ki ± SEM, SST1
Chain of SST1 (P30872 whole entry, species assumed): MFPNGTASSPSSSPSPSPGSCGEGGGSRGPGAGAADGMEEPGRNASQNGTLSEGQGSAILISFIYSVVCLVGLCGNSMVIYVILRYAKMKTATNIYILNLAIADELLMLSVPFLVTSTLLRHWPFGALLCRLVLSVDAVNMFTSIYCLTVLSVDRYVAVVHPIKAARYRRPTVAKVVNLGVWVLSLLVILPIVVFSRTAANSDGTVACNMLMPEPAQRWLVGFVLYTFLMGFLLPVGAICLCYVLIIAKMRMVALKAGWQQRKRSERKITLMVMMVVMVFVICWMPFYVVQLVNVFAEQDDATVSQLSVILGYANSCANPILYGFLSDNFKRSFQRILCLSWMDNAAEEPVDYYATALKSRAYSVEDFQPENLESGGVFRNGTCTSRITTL

[6] = target: SST3 (Homo sapiens, UniProt P32745); test: as above; settings: read-out: Ki ± SEM, SST3
Chain of SST3 (P32745 whole entry, species assumed): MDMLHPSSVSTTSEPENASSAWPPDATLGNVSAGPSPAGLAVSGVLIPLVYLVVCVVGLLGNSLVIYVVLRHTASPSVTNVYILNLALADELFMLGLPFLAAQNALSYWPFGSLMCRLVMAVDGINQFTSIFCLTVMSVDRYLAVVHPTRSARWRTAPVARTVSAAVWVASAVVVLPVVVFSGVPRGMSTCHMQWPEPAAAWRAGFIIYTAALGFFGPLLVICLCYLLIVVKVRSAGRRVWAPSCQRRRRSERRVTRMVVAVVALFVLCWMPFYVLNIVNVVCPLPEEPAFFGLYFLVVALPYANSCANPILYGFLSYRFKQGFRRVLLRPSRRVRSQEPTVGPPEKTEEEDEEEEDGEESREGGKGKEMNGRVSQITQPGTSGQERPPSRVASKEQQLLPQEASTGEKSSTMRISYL

Chain of hsst2 (P30874 whole entry): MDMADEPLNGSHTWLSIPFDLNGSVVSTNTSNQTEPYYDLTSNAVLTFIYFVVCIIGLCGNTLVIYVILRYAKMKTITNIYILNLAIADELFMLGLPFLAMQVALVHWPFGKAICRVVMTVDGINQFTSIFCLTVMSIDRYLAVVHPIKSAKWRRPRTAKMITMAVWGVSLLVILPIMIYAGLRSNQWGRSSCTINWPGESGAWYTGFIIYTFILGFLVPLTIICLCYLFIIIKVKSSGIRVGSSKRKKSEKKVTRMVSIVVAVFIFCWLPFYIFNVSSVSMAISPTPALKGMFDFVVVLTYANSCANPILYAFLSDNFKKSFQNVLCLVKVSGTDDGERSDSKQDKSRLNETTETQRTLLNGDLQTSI

Compound | binding to receptor hsst2 [2] | potency relative to parent peptide L-363,301 [1] | selectivity among hsst1-5 [1] | interaction with SS receptor subtypes (background) [3] | other results
C[C@@H](O)[C@@H]1NC(=O)[C@H](CCCCN)NC(=O)[C@@H](Cc2c[nH]c3ccccc23)NC(=O)[C@H](Cc2ccccc2)NC(=O)[C@@H](NC(=O)[C@H](N)Cc2ccccc2)CSSC[C@@H](C(=O)N[C@H](CO)[C@@H](C)O)NC1=O [Sandostatin, D-Phe-c[Cys-Phe-D-Trp-Lys-Thr-Cys]-Thr-ol] |  |  |  | interact significantly with three of the receptor subtypes, i.e. SST2, SST3 and SST5 | 
CC(C)[C@@H]1NC(=O)[C@H](CCCCN)NC(=O)[C@@H](Cc2c[nH]c3ccccc23)NC(=O)[C@H](Cc2ccc(O)cc2)NC(=O)[C@@H](NC(=O)[C@H](N)Cc2ccccc2)CSSC[C@@H](C(=O)N[C@H](C(N)=O)[C@@H](C)O)NC1=O [RC-121, D-Phe-c[Cys-Tyr-D-Trp-Lys-Val-Cys]-Thr-NH2] |  |  |  |  | Ki [4]: > 1000 nM; Ki [5]: > 1000 nM; Ki [6]: > 1000 nM
SS-28: N-terminally extended version of SS-14 that has an additional 14 amino acid residues |  |  |  | high affinity | 

More lines, main results first:

binding to receptor hsst2 [2] | Compound | potency relative to parent peptide L-363,301 [1] | selectivity among hsst1-5 [1] | interaction with SS receptor subtypes (background) [3] | other results
nanomolar range | c[Pro-Phe-(2R,3S)-β-MeTrp-Lys-Thr-Phe] | more potent than the parent peptide | highly selective for hsst2 |  | binding to receptor hsst2 ([2]; listed as (2R,3S)-β-MeTrp diastereomer): bind very well to hsst2
nanomolar range | c[Pro-Phe-(2R,3R)-β-MeTrp-Lys-Thr-Phe] | much less active | highly selective for hsst2 |  | 
